Data reported in BindingDB's records for doi:10.1021/jm801242y (Boehringer Ingelheim Pharmaceuticals, 2009).

Target: Serine/threonine-protein kinase pim-2 (Homo sapiens, UniProt Q9P1W9)
Assay: Pim Kinase Dose-Response Assay
Settings: pH 7.5; 22 °C

Chain of Serine/threonine-protein kinase pim-2 (Q9P1W9 whole entry): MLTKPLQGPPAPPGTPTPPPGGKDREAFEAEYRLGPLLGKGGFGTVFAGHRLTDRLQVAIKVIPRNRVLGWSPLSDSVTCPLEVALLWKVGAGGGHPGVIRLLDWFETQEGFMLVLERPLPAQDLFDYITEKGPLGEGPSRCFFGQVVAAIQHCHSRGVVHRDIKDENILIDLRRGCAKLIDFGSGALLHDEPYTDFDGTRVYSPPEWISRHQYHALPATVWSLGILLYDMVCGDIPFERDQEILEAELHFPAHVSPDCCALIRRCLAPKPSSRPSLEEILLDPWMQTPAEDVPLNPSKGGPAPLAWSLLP

IC50	Compound
160 nM	CN1CCCN(c2cncc(-c3cccc(C=Cc4nnn[nH]4)c3)n2)CC1 [1-methyl-4-(6-{3-[(E)-2-(1H-1,2,3,4-tetrazol-5-yl)ethenyl]phenyl}pyrazin-2-yl)-1,4-diazepane]
> 8000 nM	CN1CCCN(c2cnccn2)CC1 [1-methyl-4-(pyrazin-2-yl)-1,4-diazepane]
